Broadly, the EC50 is the concentration that produces a half-maximal response. The low end stands for greater potency, the high end for weaker potency.

This note sets out measurements from patent US10172907B2, “Compositions comprising β-arrestin 1 and methods of use thereof for therapeutic modulation of aldosterone levels in heart disease” (NOVA SOUTHEASTERN UNIVERSITY, priority 2010, dated 2019).

The test system of assay [1] is adrenal βarr1-overexpressing post-MI rats. Put plainly: Echocardiography (ejection fraction) of adrenal βarr1-overexpressing post-MI rats treated with sartans and CORET. Format: in vivo, rat. The note with it: for cardiac ejection fraction (EF): adrenal βarr1-overexpressing post-MI rats, 7-day treatment, saline-treated 35±0.3%; for ejection fraction (EF %) vs. Saline, in words: 3-week post-MI rats, 7 days post Adβarr1 gene transfer and concomitant treatment. How it is done: (§1) In vivo studies: For the in vivo studies, post-MI rats overexpressing Purl in their adrenals received 7-day-long treatments with the agents of interest.
(§2) Aldosterone measurements: Plasma aldosterone and in vitro aldosterone secretion in the supernatant of cultured H295R cells were determined by ELISA with the Aldosterone EIA kit from ALPCO Diagnostics, Salem, N.H. (Lymperopoulos A. et al. Proc. Natl. Acad. Sci. USA 106:5825-5830 2009). In vivo adrenal gene deliveries: Adrenal-specific in vivo gene delivery in rats was performed as previously described in Lymperopoulos A. et al. Proc. Natl. Acad. Sci. USA 106:5825-5830 2009). Echocardiographic and hemodynamic measurements: Two-dimensional guided M-mode and Doppler echocardiography and closed chest cardiac catheterization were performed as described in Lymperopoulos, A. et al. Nat. Med. 13:315-323 2007. Statistical analysis: Data are presented as mean±SEM. One- or two-way ANOVA with Bonferroni test was used for analysis of numeric parameters and differences were considered significant at p<0.05. Experimental Results
(§3) Statistical analysis: p<0.05, vs. Saline, ^, p<0.05, vs. CORET (SEQ ID NO:4) or IRB, n=6 rats/group.

In assay [2] the target is T1, AT1R (Homo sapiens, UniProt P30556).
T1 sequence (P30556 1-359): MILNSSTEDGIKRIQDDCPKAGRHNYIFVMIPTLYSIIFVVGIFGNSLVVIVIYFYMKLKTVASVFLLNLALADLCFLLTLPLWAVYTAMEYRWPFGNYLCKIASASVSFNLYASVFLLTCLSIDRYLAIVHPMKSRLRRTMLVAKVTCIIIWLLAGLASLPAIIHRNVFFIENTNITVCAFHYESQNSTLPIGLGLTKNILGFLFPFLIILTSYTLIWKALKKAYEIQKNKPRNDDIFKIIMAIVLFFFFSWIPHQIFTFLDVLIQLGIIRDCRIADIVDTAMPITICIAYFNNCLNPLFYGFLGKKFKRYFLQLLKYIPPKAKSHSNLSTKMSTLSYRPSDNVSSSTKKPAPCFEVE
In words: Activation of βarr2 by human AT1R in vitro by AngII peptide analogs (FIGS. 1B-C). Format: cell-based. The following applies: for EC50: in vitro.

The subject of assay [3] is adrenal βarr1-overexpressing post-MI rats. Put plainly: In vivo hemodynamic analysis (cardiac contractility) of adrenal βarr1-overexpressing post-MI rats treated with sartans and CORET. Further details: species or system rat. The note with it: vs. Saline. The protocol: as §1, §2, §3
For assay [4] the test system is unchanged. Put plainly: Plasma aldosterone in adrenal βarr1-overexpressing post-MI rats treated with sartans and CORET. Format: in vivo, rat. The following applies: 3-week post-MI rats, 7 days post Adβarr1 adrenal gene transfer, 7-day treatment. How it is done:
as §1, §2
Statistical analysis: p<0.05, vs. Saline, n=6 rats/group.

The test system of another assay is H295R cells. In words: In vitro βarr1-dependent SII-induced aldosterone secretion in H295R cells (ELISA). The following applies: H295R cells transfected with Adβarr1, stimulated with 1 mM SII, standard doses of agents; p<0.05 vs. SII. Format: cell-based, human. How it is done: as §2
Of note, when endogenous Purl is inhibited, no effects by drugs and peptides on SII-induced aldosterone secretion are seen (data not shown), as expected, since SII is a “biased” βarr-only agonist (Luttrell, L. M. et al. Pharmacol. Rev. 62:305-330 2010; Rajagopal, S. et al. Nat. Rev. Drug Discov. 9:373-386 2010; Kenakin, T. et al. Pharmacol. Rev. 62:265-304 2010). Statistical analysis: <0.05, vs. SII, n=3 independent experiments.
(In general: An ELISA detects its analyte on a solid surface through an enzyme-linked reagent.)

Assay [5] concerns the target T1, AT1R. In words: Biased antagonism of sartans for AT1R-stimulated βarr vs. G-protein-mediated signaling (FIG. 6). The following applies: both IC50 in nM; <1 biased for βarr antagonism, >1 biased towards G-protein antagonism.
Source text: This ranking was derived from the ratios of individual IC50 for AT1R-βarr antagonism to IC50 for G-protein antagonism (both in nM) for each sartan.
In assay [6] the target is T1, AT1R. In words: Inhibition of SII-induced activation of βarr2 by human AT1R in vitro (FIG. 1A). The following applies: % normalized signal.
Assay [7] relates to post-MI rats. In words: Plasma aldosterone (EIA) after adrenal gene delivery in post-MI rats. Format: in vivo, rat. The protocol:
In vivo adrenal gene delivery in post-myocardial infarction (MI) rats: All animal procedures and experiments were performed in accordance with the guidelines of the IACUC committees of Thomas Jefferson and Nova Southeastern Universities. MI was performed using a known cryo-infarct method (Lymperopoulos, A. et al. Nat. Med. 13:315-323 2007). Adrenal-specific in vivo gene delivery was done essentially as described in Lymperopoulos, A. et al. (Mol. Ther. 16:302-307 2008) via direct delivery of adenovirus in the adrenal gland. […] Construction and purification of adenovirus: Recombinant adenovirus that encode full length wild-type βarr1 (Adβarr1; SEQ ID NO:1) or a rat βarr1 C-terminal fragment (Adβarr-1ct) (SEQ ID NO:3, amino acid residues 369-418 of the C-terminal of rat βarr-1 (SEQ ID NO:2); see FIG. 7A) were constructed as described in Lymperopoulos A. et al. Proc. Nati. Acad. Sci. USA 106:5825-5830 2009 and Lymperopoulos, A. et al. Nat. Med. 13:315-323 2007. […] The black box highlights the clathrin- and AP-2 adaptin-binding domains, which are necessary for the receptor internalizing and signaling functions of βarr1 (Ferguson, S. S. Pharmacol Rev 53:1-24 2001) Transgenes were cloned into shuttle vector pAdTrack-CMV, which harbors a CMV-driven green fluorescent protein (GFP), to form the viral constructs by using standard cloning protocols. As control adenovirus, empty vector which expressed only GFP (AdGFP) was used. The resultant adenovirus were purified using two sequential rounds of CsCl density gradient ultracentrifugation as described in Lymperopoulos A. et al. Proc. Natl. Acad. Sci. USA 106:5825-5830 2009 and Lymperopoulos, A. et al. Nat. Med. 13:315-323 2007. Plasma aldosterone measurements: Rat plasma aldosterone levels were determined by EIA (Aldosterone EIA Kit, ALPCO Diagnostics, Salem, N.H., USA) as described in Lymperopoulos A. et al. Proc. Natl. Acad. Sci. USA 106:5825-5830 2009 and Mihailidou et al. Hypertension 40:124-129 2002. Echocardiographic and hemodynamic measurements: Two-dimensional guided M-mode and Doppler echocardiography using a 14-Mhz transducer (Vevo 770 Echograph, VisualSonic Inc., Toronto, Ontario, Canada) and closed chest cardiac catheterization were performed in rats as described in Lymperopoulos, A. et al. Nat. Med. 13:315-323 2007 and Rengo, G. et al. Circulation 119:89-98 2009. Three independent echocardiographic measurements were taken in both modes. […]

A further assay concerns post-MI rat hearts. Put plainly: Masson-trichrome staining for cardiac fibrosis in post-MI rats. The following applies: 7 days concomitant drug vs. vehicle (saline). Format: in vivo. How it is done:
(§4) In vivo adrenal gene delivery in post-myocardial infarction (MI) rats: All animal procedures and experiments were performed in accordance with the guidelines of the IACUC committees of Thomas Jefferson and Nova Southeastern Universities. MI was performed using a known cryo-infarct method (Lymperopoulos, A. et al. Nat. Med. 13:315-323 2007). Adrenal-specific in vivo gene delivery was done essentially as described in Lymperopoulos, A. et al. (Mol. Ther. 16:302-307 2008) via direct delivery of adenovirus in the adrenal gland. […] Construction and purification of adenovirus: Recombinant adenovirus that encode full length wild-type βarr1 (Adβarr1; SEQ ID NO:1) or a rat βarr1 C-terminal fragment (Adβarr-1ct) (SEQ ID NO:3, amino acid residues 369-418 of the C-terminal of rat βarr-1 (SEQ ID NO:2); see FIG. 7A) were constructed as described in Lymperopoulos A. et al. Proc. Nati. Acad. Sci. USA 106:5825-5830 2009 and Lymperopoulos, A. et al. Nat. Med. 13:315-323 2007. […] Plasma aldosterone measurements: Rat plasma aldosterone levels were determined by EIA (Aldosterone EIA Kit, ALPCO Diagnostics, Salem, N.H., USA) as described in Lymperopoulos A. et al. Proc. Natl. Acad. Sci. USA 106:5825-5830 2009 and Mihailidou et al. Hypertension 40:124-129 2002. […]

In assay [8] the test system is post-MI rats. In words: Echocardiographic parameters after adrenal gene delivery in post-MI rats. Format: in vivo, rat. The note with it: Adβarr1 post-MI rats. The protocol: as §4

SMILES strings stand for the structures. “Also recorded” adds a separate entry of the source. Non-standard residues stand in square brackets, D forms with d. Residues, ends and D or L forms follow the SMILES beside them. Sar = CNCC(=O)O

With `CCOc1nc2cccc(C(=O)O)c2n1Cc1ccc(-c2ccccc2-c2nnn[nH]2)cc1` [CAN, Candesartan], the “cardiac ejection fraction (EF)” value in assay [1] is recorded as 41.1±1%.
Regarding `CCSC[C@H](NC(=O)[C@H](Cc1ccc(O)cc1)NC(=O)[C@@H](NC(=O)[C@H](CCCNC(=N)N)NC(=O)CNC)C(C)C)C(=O)N[C@@H](Cc1c[nH]cn1)C(=O)N1CCC[C@H]1C(=O)N[C@@H](CC(C)C)C(=O)O` [CORET, Sar^1,Cys(Et)^5,Leu^8-AngII] (H-[Sar]RVYC(Et)HPL-OH; N-terminus and C-terminus assumed), the EC50 on AT1R [2] came out at 1 nM. The “times less potent than AngII for βarr activation by the AT1R” value on AT1R [2] (ratio of EC50s) was found to be 10 times. Moreover, the “myocardial systolic function in response to maximal dose of Isoproterenol (Max. Iso)” value (from here on “myocardial systolic function in response”) in [3] is listed as “severely impaired myocardial systolic function”. In addition, in assay [4], the “plasma aldosterone levels vs. Saline” value is “an increase; also recorded: significantly worsens hyperaldosteronism”. Besides, the “ejection fraction (EF %) vs. Saline, in words” value in assay [1] is recorded as “further worsened cardiac function”. Also, in the assay with H295R cells, the SII-induced aldosterone secretion entry is given as “can enhance; also recorded: far greater aldosterone secretion in vitro than SII”.
As for `CCCCC1=NC2(CCCC2)C(=O)N1Cc1ccc(-c2ccccc2-c2nnn[nH]2)cc1` [IRB, Irbesartan], the “ratio of IC50 for AT1R-βarr antagonism to IC50 for G-protein antagonism” value on AT1R [5] is 1.05. For the same molecule, the “myocardial systolic function in response” value in assay [3] is “severely impaired myocardial systolic function”. The “plasma aldosterone levels vs. Saline” value in assay [4] is “unable to counter the adrenal βarr1-mediated hyperaldosteronism”. Also, in assay [1], the “ejection fraction (EF %) vs. Saline, in words” value was “further worsened cardiac function” and the “cardiac ejection fraction (EF)” value came out at 32±1%. Besides, at AT1R [6], the “relative potency for inhibition of SII-induced activation of βarr2 by human AT1R” value is “the least potent βarr inhibitors”.
As for `CCCCc1nc(Cl)c(CO)n1Cc1ccc(-c2ccccc2-c2nn[nH]n2)cc1` [LOS, Losartan], in the assay with post-MI rats [7] (losartan 50 mg/kg/day for 7 days post-gene delivery), the “plasma aldosterone reduction by losartan in Adβarr1ct-treated post-MI rats” value is on record as “no significant aldosterone reduction”. Moreover, the “plasma aldosterone, losartan-treated control AdGFP post-MI rats” value with post-MI rats [7] (losartan 50 mg/kg/day for 7 days post-gene delivery, saline-treated 470±20) came out at 402 ± 10 pg/mL. In addition, the “plasma aldosterone, losartan-treated Adβarr1 post-MI rats” value in the assay with post-MI rats [7] (losartan 50 mg/kg/day for 7 days post-gene delivery, saline-treated 845±150, not significant) worked out at 880 ± 88 pg/mL. In the assay with post-MI rat hearts, the “cardiac fibrosis in Adβarr1-adrenal treated rat hearts under drug treatment” value is recorded as “incapable of reducing the cardiac fibrosis”.
In turn, `CC[C@H](C)[C@H](NC(=O)[C@@H]1CCCN1C(=O)[C@H](Cc1c[nH]cn1)NC(=O)[C@@H](NC(=O)[C@@H](NC(=O)[C@@H](NC(=O)[C@H](CCCNC(=N)N)NC(=O)CNC)C(C)C)[C@@H](C)CC)[C@@H](C)CC)C(=O)O` [SII, Sar^1,Ile^4,Ile^8-AngII] had an EC50 at AT1R [2] of 11.2 nM. This counts as double-digit nanomolar.
Take `CCCCC(=O)N(Cc1ccc(-c2ccccc2-c2nnn[nH]2)cc1)[C@H](C(=O)O)C(C)C` [VAL, Valsartan]: the “myocardial systolic function in response” value in assay [3] is “significantly improves it”. In addition, the results for the “plasma aldosterone levels vs. Saline” value in [4] and in [4] (listed as valsartan) were “profound decreases” and “significant plasma aldosterone reductions”, respectively. For the same molecule, the “ejection fraction (EF %) vs. Saline, in words” value in assay [1] was “significantly improved”. Also, in assay [1], the “cardiac ejection fraction (EF)” value was 40±1%. The SII-induced aldosterone secretion result in the assay on H295R cells is “can inhibit”.
As to `COC(=O)[C@@H]1CC2=CC(=O)CC[C@]2(C)[C@@]23O[C@@H]2C[C@@]2(C)[C@@H](CC[C@@]24CCC(=O)O4)[C@H]13` [eplerenone], the “effect on plasma aldosterone increase caused by Adβarr1 treatment” value with post-MI rats [7] (Adβarr1 post-MI rats, 100 mg/kg/day eplerenone for 7 days) is “no effect”. In addition, the “EF reduction and LVEDD increase induced by adrenal βarr1 overexpression” value in the assay with post-MI rats [8] (eplerenone 100 mg/kg/d for 7 days) is given as “prevented”. For the same molecule, in the assay with post-MI rats [8] (eplerenone low dose 5 mg/kg/d, data not shown), the “effects of adrenal βarr1 overexpression (EF, LVEDD)” value is listed as “prevented”. The “cardiac fibrosis in Adβarr1-adrenal treated rat hearts under drug treatment” value in the assay with post-MI rat hearts is listed as “markedly reduced fibrosis”.
